{"source": "patent US20050130935A1", "about": "“Combination of a beta-2-adrenoceptor agonists and an aminosugars and their use for the treatment immunomodulatory disorders” (priority 2002, published 2005)", "key": {"[1]": {"system": "arachidonic acid induced ear oedema", "assay": "arachidonic acid induced ear inflammation test in the mouse (Example 177)", "format": "in vivo", "conditions": "i.p., 30 minutes before arachidonic acid, ears weighed one hour after application", "description": "(§1) The objective of this study is to assess the effect of three doses of two chemical complexes of the invention systemically administered in the arachidonic acid induced ear inflammation test in the mouse, a commonly employed method for screening and evaluation of antiinflammatory drugs. Dexamethasone was employed as reference compound.\n(§2) The study was performed in female BALB/ca mice from M & B A/S, DK-8680 Ry. At start of the acclimatisation period the mice were in the weight range of 20 g (+/−5 g).\nOn the day of arrival the animals were randomly allocated to groups of 8 mice.\n(§3) The test substances and reference compound were administered intraperitoneally in volumes of 20 ml per kg body weight 30 minutes before application of arachidonic acid to the ear.\nAll groups were treated with 20 μl arachidonic acid, 100 mg/ml in acetone, on the right ear. […]\n(§4) Mean weights and standard deviations were calculated. Relative ear oedema was assessed as the weight difference between right and left ear of each mouse expressed as percent of the left ear. Percent inhibition of the relative ear oedema compared with the vehicle treated groups was calculated for the test substance and reference compound treated groups.\nAll visible signs of ill health and any behavioural changes were recorded daily during the study. Any deviation from normal was recorded with respect to time of onset, duration and intensity. […]"}, "[2]": {"system": "arachidonic acid induced ear oedema", "assay": "arachidonic acid induced ear inflammation test in the mouse, complex versus its components (Example 178)", "format": "in vivo", "conditions": "i.p.; for inhibition of ear oedema, in words: doses of T17", "description": "as §1, with “a dose of a complex according to compared to the effect of the corresponding” for “three”, “the components” for “two chemical complexes”, “complex. All compounds were” for “invention”, “Methylprednisolone” for “Dexamethasone”\nas §2\nOn the day of arrival the animals were randomly allocated to groups of 10 mice.\nas §3\nAll groups were treated with 20 μl arachidonic acid, 100 mg/ml in acetone, on the right ear.\nOne hour after the arachidonic acid application the mice were sacrificed, the ears cut from the tip with a punch biopsy knife (8 mm diameter) and weighed.\nas §4\nAll visible signs of ill health and any behavioural changes were recorded daily during the study. Any deviation from normal was recorded with respect to time of onset, duration and intensity.\nDifferences in relative ear oedema between the vehicle treated group and the other groups were tested for significance employing a non-parametric statistical method of analysis, the Mann-Whitney U test. The required level of significance will be p<0.05. […] All statistical analysis was performed employing the statistical software package Analyse-it v. 1.62."}, "muscular pain": {"system": "muscular pain", "assay": "case report, with muscular pain (Example 179)", "format": "in vivo, human", "description": "They were then treated with the complex of the invention disclosed in example 56 (1500 mg/day) instead of glucosamine sulfate. […] After two weeks they were symptom free for the first time in 6 years, which persisted for another 6 weeks of treatment, where after the treatment was terminated."}, "[3]": {"system": "osteoarthritis of the knees", "assay": "case report, person with osteoarthritis of the knees (Example 180)", "format": "in vivo, human", "conditions": "for success of earlier analgesic treatment of osteoarthritis of the knees: treatment for periods during 8 years", "description": "They were then treated with the complex of the invention disclosed in example 56 (1500 mg/day). […] The improvement persisted for the entire treatment period of 10 weeks, where after the treatment was terminated."}}, "data": [{"molecule": "C[C@@H]1C[C@H]2[C@@H]3CCC4=CC(=O)C=C[C@]4(C)[C@@]3(F)[C@@H](O)C[C@]2(C)[C@@]1(O)C(=O)CO", "note": "[Dexamethasone]", "values": [{"measurement": "% Inhibition of relative ear oedema", "setting": "[1]; 2 mg/kg", "value": 0, "unit": "%"}, {"measurement": "% Inhibition of relative ear oedema", "setting": "[1]; 6 mg/kg", "value": 0, "unit": "%"}]}, {"molecule": "N[C@H]1C(O)O[C@H](CO)[C@@H](O)[C@@H]1O.O=S(=O)(O)O", "note": "(stereo partly shown) [Glucosamine sulfate]", "values": [{"measurement": "% Inhibition of relative ear oedema", "setting": "[2]; 997 mg/kg", "value": 9, "unit": "%"}, {"measurement": "inhibition of ear oedema, in words", "setting": "[2]", "value": "inhibited ear oedema mildly, and not statistically significantly"}, {"measurement": "improvement of muscular pain symptoms on earlier treatment", "setting": "muscular pain; 1500 mg a day, continuously the last year", "value": "small improvement"}]}, {"molecule": "C[C@H]1C[C@@H]2[C@H]([C@@H](O)C[C@@]3(C)[C@H]2CC[C@]3(O)C(=O)CO)[C@@]2(C)C=CC(=O)C=C12", "note": "[Methylprednisolone]", "values": [{"measurement": "% Inhibition of relative ear oedema", "setting": "[2]; 30 mg/kg", "value": 55, "unit": "%"}]}, {"molecule": "CC(C)(C)NCC(O)c1ccc(O)c(CO)c1", "note": "(stereo not shown) [Salbutamol]", "values": [{"measurement": "% Inhibition of relative ear oedema", "setting": "[2]; 3.0 mg/kg", "value": 55, "unit": "%"}, {"measurement": "inhibition of ear oedema, in words", "setting": "[2]", "value": "inhibited ear oedema significantly"}]}, {"molecule": "COc1ccc2c3c1O[C@H]1[C@@H](O)C=C[C@H]4[C@@H](C2)N(C)CC[C@@]341", "note": "[codeine]", "values": [{"measurement": "success of earlier analgesic treatment of osteoarthritis of the knees", "setting": "[3]", "value": "limited success"}]}, {"molecule": "O=C(O)Cc1ccccc1Nc1c(Cl)cccc1Cl", "note": "[diclofenac]", "values": [{"measurement": "success of earlier analgesic treatment of osteoarthritis of the knees", "setting": "[3]", "value": "limited success"}]}, {"molecule": "N[C@H]1C(O)O[C@H](CO)[C@@H](O)[C@@H]1O", "note": "(stereo partly shown) [glucosamine]", "values": [{"measurement": "effect of earlier treatment on osteoarthritis of the knees", "setting": "[3]; recommended dose, different formulations", "value": "very limited effect"}]}, {"molecule": "CC(C)Cc1ccc(C(C)C(=O)O)cc1", "note": "(stereo not shown) [ibuprofen]", "values": [{"measurement": "success of earlier analgesic treatment of muscular pain", "setting": "muscular pain; treatment for periods during 6 years", "value": "limited success"}]}, {"molecule": "CS(=O)(=O)c1ccc(C2=C(c3ccccc3)C(=O)OC2)cc1", "note": "[rofecoxib]", "values": [{"measurement": "success of earlier analgesic treatment of osteoarthritis of the knees", "setting": "[3]", "value": "limited success"}]}]}
